The compounds below were run on SD rats (type 2 diabetes model) (assay: model for rat urine glucose excretion (glucose-oxidase method)). Settings: comparison in words, rat urine glucose excretion model, 6 mg/kg.
Type: in vivo
Description: The health SD rats are injected intraperitoneally with multiple low doses of streptozotocin for modeling (type 2 diabetes model) after feeding with high-fat and high-sucrose diet, and the content of blood glucose is measured before and after modeling. After the modeling successful, the rats for modeling are randomly divided (8 rats/group) into one blank group (administering the same volume of 0.5% CMC sodium solution) and several groups for compounds to be tested (6 mg/kg) according to the content of 24-hour urine glucose and the body weight. Rats in each group are fasted for 16 hours before experiment. The experimental rats are administered intragastrically with glucose (2 g/kg) at 0.5 h after intragastrical administration with compounds to be tested. The urine is collected at the time-period of 0-12 h after administration, and the urine glucose values are measured at each time-period by glucose-oxidase method.
The inhibiting activity of the cocrystal of I-D1-6 and L-proline on SGLT2 is measured by the model for rat urine glucose excretion.
The health SD rats are injected intraperitoneally with multiple low doses of streptozotocin for modeling (type 2 diabetes model) after feeding with high-fat and high-sucrose diet for one month, and the content of blood glucose is measured before and after modeling. After the modeling successful, the rats for modeling are randomly divided (8 rats/group) into one blank group (administering the same volume of 0.5% CMC sodium solution) and groups of tested compound (6 mg/kg) according to the content of 24-hour urine glucose and the body weight. Rats in each group are fasted for 16 hours before experiment. The experimental rats are administered intragastrically with the glucose (2 g/kg) at 0.5 h after intragastrical administration with the cocrystal of I-D1-6 and L-proline prepared in Example 138. The urine is collected at the time-period of 0-12 h after administration, and the urine glucose values are measured at each time-period by glucose-oxidase method.

Row | Structure (SMILES) | urine glucose excretion effect (in words)
1 | CCOc1ccc(Cc2cc([C@@H]3C[C@@H](O)[C@H](O)[C@@H](CO)O3)ccc2Cl)cc1 [I-D1-2, (1S)-1-[4-chloro-3-(4-ethoxybenzyl)phenyl]-1,2-dideoxy-D-glucose] | stronger urine glucose excretion effect
2 | CCOc1ccc(Cc2cc([C@@H]3O[C@H](CO)C[C@H](O)[C@H]3O)ccc2Cl)cc1 [I-D1-4, (1S)-1-[4-chloro-3-(4-ethoxybenzyl)phenyl]-1,4-dideoxy-D-glucose] | stronger urine glucose excretion effect
3 | CCOc1ccc(Cc2cc([C@@H]3O[C@H](CO)[C@@H](O)C[C@H]3O)ccc2Cl)cc1 [I-D1-3, (1S)-1-[4-chloro-3-(4-ethoxybenzyl)phenyl]-1,3-dideoxy-D-glucose] | stronger urine glucose excretion effect

Same assay, conditions: type 2 diabetes model SD rats, 6 mg/kg intragastrically, glucose 2 g/kg at 0.5 h, urine collected 0-12 h

Row | Structure (SMILES) | Urine glucose excretion (mg/200 g body weight of the rat)
4 | OCC1OC(c2ccc(Cl)c(Cc3ccc(O[C@H]4CCOC4)cc3)c2)C(O)C(O)C1O (some centres unmarked) [drawing 197] | 643 mg/200 g body weight of the rat
5 | COc1ccc(Cc2cc(C3OC(CO)CC(O)C3O)ccc2Cl)c(F)c1 (centres unmarked) | 288 mg/200 g body weight of the rat
6 | CCc1ccc(Cc2c(Cl)ccc3c2COC32CC(O)C(O)C(CO)O2)cc1 (centres unmarked) [drawing 248] | 717 mg/200 g body weight of the rat
7 | C#Cc1ccc(Cc2cc(C3OC(CO)CC(O)C3O)ccc2OC)cc1 (centres unmarked) | 328 mg/200 g body weight of the rat
8 | CCOc1ccc(Cc2cc(C3OC(C)C(O)C(O)C3O)ccc2OC)cc1 (centres unmarked) | 688 mg/200 g body weight of the rat
9 | CCOc1ccc(Cc2cc([C@]34OC[C@](C)(O3)[C@@H](O)[C@H](O)[C@H]4O)ccc2Cl)cc1 [drawing 250] | 665 mg/200 g body weight of the rat
10 | CCOc1ccc(Cc2cc(C3OC(C)C(O)C(O)C3O)ccc2C)cc1 (centres unmarked) [drawing 216] | 700 mg/200 g body weight of the rat
11 | Cc1ccc(C2OC(C)C(O)C(O)C2O)cc1Cc1ccc(-c2ccc(F)cc2)s1 (centres unmarked) [drawing 238] | 723 mg/200 g body weight of the rat
12 | C#Cc1ccc(Cc2cc(C3OC(C)C(O)C(O)C3O)ccc2Cl)cc1 (centres unmarked) | 671 mg/200 g body weight of the rat
13 | COc1ccc(Cc2cc(C3OC(CO)CC(O)C3O)ccc2Cl)cc1 (centres unmarked) | 310 mg/200 g body weight of the rat
14 | CCOc1ccc(Cc2cc(C3SC(CO)C(O)CC3O)c(OC)cc2C)cc1 (centres unmarked) [drawing 257] | 728 mg/200 g body weight of the rat
15 | COc1ccc(Cc2cc(C3CC(O)C(O)C(CO)O3)ccc2Cl)cc1 (centres unmarked) | 426 mg/200 g body weight of the rat
16 | COc1ccc(Cc2cc(C3OC(C)C(O)C(O)C3O)ccc2C(F)(F)F)c(F)c1F (centres unmarked) | 622 mg/200 g body weight of the rat
17 | CCc1ccc(Cc2cc(C3OC(CO)C(O)CC3O)ccc2Cl)cc1 (centres unmarked) | 198 mg/200 g body weight of the rat
18 | CCOc1ccc(Cc2cc(C3CC(O)C(O)C(CO)S3)c(OC)cc2C)cc1 (centres unmarked) [drawing 249] | 786 mg/200 g body weight of the rat
19 | CCOc1ccc(Cc2cc([C@]34OC[C@](CO)(O3)[C@@H](O)C[C@H]4O)ccc2Cl)cc1 [drawing 260] | 711 mg/200 g body weight of the rat
20 | CCOc1ccc(Cc2cc(C3SC(CO)C(O)CC3O)c(OC)cc2C)cc1 (centres unmarked) [drawing 256] | 766 mg/200 g body weight of the rat
21 | CCc1ccc(Cc2cc(C3OC4(CC4)C(O)C(O)C3O)ccc2C)cc1 (centres unmarked) | 609 mg/200 g body weight of the rat
22 | C=C1OC(c2ccc(Cl)c(Cc3ccc(OC)cc3)c2)C(O)C(O)C1O (centres unmarked) | 410 mg/200 g body weight of the rat
23 | CCc1ccc(Cc2cc(C3CC(O)C(O)C(CO)O3)ccc2Cl)cc1 (centres unmarked) | 412 mg/200 g body weight of the rat
24 | CCCOc1ccc(Cc2cc(C3OC(C)C(O)C(O)C3O)ccc2Cl)cc1 (centres unmarked) [drawing 217] | 712 mg/200 g body weight of the rat
25 | OCC1OC(c2ccc(F)c(Cc3cc4ccccc4s3)c2)C(O)CC1O (centres unmarked) [drawing 240] | 656 mg/200 g body weight of the rat
26 | CCc1ccc(Cc2c(Cl)ccc3c2COC32OC(CO)CC(O)C2O)cc1 (centres unmarked) [drawing 245] | 634 mg/200 g body weight of the rat

Row | Structure (SMILES) | Urine glucose excretion (mg/200 g body weight of the rat)
27 | CCc1ccc(Cc2c(Cl)ccc3c2COC32OC(CO)C(O)CC2O)cc1 (centres unmarked) [drawing 246] | 712 mg/200 g body weight of the rat
28 | COc1ccc(Cc2cc(C3OC(C)C(O)C(O)C3O)ccc2Cl)cc1 (centres unmarked) [drawing 243] | 457 mg/200 g body weight of the rat
29 | CCOc1ccc(Cc2cc(C3OC(CO)C(O)CC3O)ccc2Cl)cc1 (centres unmarked) [drawing 237] | 828 mg/200 g body weight of the rat
30 | C=C1OC(c2ccc(Cl)c(Cc3ccc(OCC)cc3)c2)C(O)C(O)C1O (centres unmarked) | 457 mg/200 g body weight of the rat
31 | CCOc1ccc(Cc2cc(C3SC(CO)CC(O)C3O)c(OC)cc2C)cc1 (centres unmarked) [drawing 247] | 677 mg/200 g body weight of the rat
32 | CCOc1ccc(Cc2cc([C@@]34OC[C@@](CO)(C[C@H](O)[C@H]3O)O4)ccc2Cl)cc1 [drawing 251] | 751 mg/200 g body weight of the rat
33 | CCOc1ccc(Cc2cc(C3OC(C)C(O)C(O)C3O)ccc2Cl)cc1 (centres unmarked) [drawing 219] | 833 mg/200 g body weight of the rat
34 | CCOc1ccc(Cc2cc(C3OC(C)CC(O)C3O)ccc2Cl)cc1 (centres unmarked) [drawing 252] | 765 mg/200 g body weight of the rat
35 | OCC1OC(c2ccc(F)c(Cc3cc4ccccc4s3)c2)CC(O)C1O (centres unmarked) [drawing 242] | 716 mg/200 g body weight of the rat
36 | CCc1ccc(Cc2c(Cl)ccc3c2COC32OC(C)C(O)C(O)C2O)cc1 (centres unmarked) [drawing 255] | 755 mg/200 g body weight of the rat
37 | OCC1OC(c2ccc(F)c(Cc3cc4ccccc4s3)c2)C(O)C(O)C1O (centres unmarked) [drawing 195] | 621 mg/200 g body weight of the rat
38 | OCC1OC(c2ccc(Cl)c(Cc3ccc(O[C@H]4CCOC4)cc3)c2)CC(O)C1O (some centres unmarked) [drawing 234] | 744 mg/200 g body weight of the rat
39 | CC1OC(c2ccc(F)c(Cc3cc4ccccc4s3)c2)C(O)C(O)C1O (centres unmarked) [drawing 230] | 749 mg/200 g body weight of the rat
40 | Cc1ccc(C2OC(C)C(O)CC2O)cc1Cc1ccc(-c2ccc(F)cc2)s1 (centres unmarked) [drawing 261] | 701 mg/200 g body weight of the rat
41 | CCOc1ccc(Cc2cc(C3OC(OC)C(O)C(O)C3O)ccc2Cl)cc1 (centres unmarked) | 644 mg/200 g body weight of the rat
42 | CCc1ccc(Cc2cc(C3OC(C)C(O)C(O)C3O)ccc2OC)cc1 (centres unmarked) | 439 mg/200 g body weight of the rat
43 | Cc1ccc(C2OC(CO)C(O)C(O)C2O)cc1Cc1ccc(-c2ccc(F)cc2)s1 (centres unmarked) [drawing 196] | 655 mg/200 g body weight of the rat
44 | Cc1ccc(C2CC(O)C(O)C(CO)O2)cc1Cc1ccc(-c2ccc(F)cc2)s1 (centres unmarked) [drawing 229] | 698 mg/200 g body weight of the rat
45 | Cc1ccc(C2OC(CO)C(O)CC2O)cc1Cc1ccc(-c2ccc(F)cc2)s1 (centres unmarked) [drawing 239] | 772 mg/200 g body weight of the rat
46 | COc1ccc(Cc2cc(C3OC(C)C(O)C(O)C3O)ccc2Cl)cc1 (centres unmarked) [drawing 213] | 736 mg/200 g body weight of the rat
47 | Cc1ccc(C2OC(C)C(O)C(O)C2O)cc1Cc1ccc(OC2CCOC2)cc1 (centres unmarked) | 611 mg/200 g body weight of the rat
48 | Cc1ccc(C2OC(CO)CC(O)C2O)cc1Cc1ccc(-c2ccc(F)cc2)s1 (centres unmarked) [drawing 228] | 801 mg/200 g body weight of the rat

These compounds were tested on Mice (assay: not given). Settings: both, mouse, in vivo, 750 mg/kg, 1 week.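 Further: mice weighing 18–20 g, both sexes in equal proportion within each group.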

Row | Structure (SMILES) | Behaviors after administration with the compound to be tested (deaths)
49 | CCOc1ccc(Cc2cc(C3SC(CO)C(O)C(O)C3O)c(OC)cc2C)cc1 (centres unmarked) [drawing 277] | 10 dead

Same assay, conditions: mice, 10 mice/group, single intragastric dose 750 mg/kg, within one week

Row | Structure (SMILES) | Behaviors after administration with the compound to be tested (deaths)
50 | CCOc1ccc(Cc2cc([C@@]34OC[C@@](CO)(C[C@H](O)[C@H]3O)O4)ccc2Cl)cc1 [drawing 293] | 4 dead
51 | CCOc1ccc(Cc2cc(C3CCC(O)C(CO)S3)c(OC)cc2C)cc1 (centres unmarked) [drawing 307] | 0 dead
52 | OCC1CC(O)C(O)C(c2ccc(Cl)c(Cc3ccc(O[C@H]4CCOC4)cc3)c2)O1 (some centres unmarked) [drawing 297] | 2 dead
53 | CCOc1ccc(Cc2cc(C3SC(C)C(O)C(O)C3O)c(OC)cc2C)cc1 (centres unmarked) [drawing 302] | 4 dead

Source: patent US9505734B2, “Phenyl C-glucoside derivative containing deoxyglucose structure, preparation method and use thereof” (Tianjin Institute of Pharmaceutical Research, priority 2012, dated 2016)
